{
  "source": "paper PMC3082371",
  "about": "(Bioorganic & medicinal chemistry letters, 2008)",
  "data": [
    {"molecular_target": "h5-HT2A receptor (Homo sapiens, UniProt P28223)", "sequence (P28223 whole entry)": "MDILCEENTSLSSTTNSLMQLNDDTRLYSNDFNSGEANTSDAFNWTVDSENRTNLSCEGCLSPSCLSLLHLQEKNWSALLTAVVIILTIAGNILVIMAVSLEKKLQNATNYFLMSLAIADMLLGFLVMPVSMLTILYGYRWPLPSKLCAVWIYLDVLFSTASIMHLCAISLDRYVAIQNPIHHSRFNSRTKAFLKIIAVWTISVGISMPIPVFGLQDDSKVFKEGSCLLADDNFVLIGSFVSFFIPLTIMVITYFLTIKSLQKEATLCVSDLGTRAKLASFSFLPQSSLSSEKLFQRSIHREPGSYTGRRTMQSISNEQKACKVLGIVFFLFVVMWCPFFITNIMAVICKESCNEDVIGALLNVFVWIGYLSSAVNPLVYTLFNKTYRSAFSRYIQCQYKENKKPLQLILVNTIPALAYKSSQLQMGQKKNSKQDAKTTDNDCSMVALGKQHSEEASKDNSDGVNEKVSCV", "experiment": "[3H]ketanserin competitive radioligand binding assay", "conditions": "h5-HT2A Ki relative to parent compound AMDA (Ki = 20 nM)", "units": {"fold decrease in affinity compared to AMDA": "fold"}, "values": [
      {"smiles": "COc1cccc2c1C(CN)c1ccccc1C2", "note": "(stereo not drawn) [Compound 2, 1-methoxy AMDA]", "fold decrease in affinity compared to AMDA": "> 50"},
      {"smiles": "COc1cccc2c1Cc1ccccc1C2CN", "note": "(stereo not drawn) [Compound 5, 4-methoxy-AMDA]", "fold decrease in affinity compared to AMDA": 6},
      {"smiles": "COc1ccc2c(c1)C(CN)c1ccccc1C2", "note": "(stereo not drawn) [Compound 3, 2-methoxy-9-aminomethyl-9,10-dihydroanthracene]", "fold decrease in affinity compared to AMDA": "> 50"}
    ]}
  ]
}
